Reference: patent US20260013501A1, “HERBICIDAL DERIVATIVES” (SYNGENTA CROP PROTECTION AG, priority 2022, published 2026)

Legend:
Assay type in all cases: in vivo
Conditions in all cases: evaluated after 13 days
Zea mays (ZEAMX) [1] = test: Post-emergence Test (Table B2), ZEAMX; parameters: key: 5-point damage scale: 5=81-100%, 4=61-80%, 3=41-60%, 2=21-40%, 1=0-20%
Procedure: Seeds of a variety of test species are sown in standard soil in pots (Ipomoea hederacea (IPOHE), Zea mays (ZEAMX), Echinochloa crus-galli (ECHCG), Amaranthus palmeri (AMAPA), (Amaranthus retoflexus (AMARE), and (Setaria faberi (SETFA)). After 8 days cultivation under controlled conditions in a glasshouse (at 24° C./16° C., day/night; 14 hours light; 65% humidity), the plants are sprayed with an aqueous spray solution derived from the formulation of the technical active ingredient in acetone/water (50:50) solution containing 0.5% Tween 20 (polyoxyethelyene sorbitan monolaurate, CAS RN 9005-64-5). Rate of application is shown in g/ha in the tables below. The test plants are then grown in a glasshouse under controlled conditions in a glasshouse (at 24° C./16° C., day/night; 14 hours light; 65% humidity) and watered twice daily. After 13 days the test is evaluated for the percentage damage caused to the plant. The biological activities are shown in the following table on a five-point scale (5=81-100%; 4=61-80%; 3=41-60%; 2=21-40%; 1=0-20%; -=not tested).

[2] = test system: Amaranthus palmeri (AMAPA); test: Pre-emergence Test (Table B1), AMAPA
[3] = test system: Amaranthus retoflexus (AMARE); test: Pre-emergence Test (Table B1), AMARE
Zea mays (ZEAMX) [4] = test: Pre-emergence Test (Table B1), ZEAMX

`CCn1c(Cc2cccc(Cl)c2)cc(=O)c(C(=O)O)c1-c1ccc(Cl)c(Cl)c1` [Compound 1, 6-[(3-chlorophenyl)methyl]-2-(3,4-dichlorophenyl)-1-ethyl-4-oxo-pyridine-3-carboxylic acid] was tested, and the “percentage damage caused to the plant, ZEAMX” value (Zea mays (ZEAMX) [1]; rate 1000 g/Ha) was 0.
`CCn1c(Cc2ncc(Cl)cn2)cc(=O)c(C(=O)O)c1-c1ccc(Cl)c(Cl)c1` [Compound 4, 6-[(5-chloropyrimidin-2-yl)methyl]-2-(3,4-dichlorophenyl)-1-ethyl-4-oxo-pyridine-3-carboxylic acid] was tested, and the “Pre-emergence Test, percentage damage caused to the plant (five-point scale), AMAPA” value ([2]; Rate 1000 g/Ha) was 0.
`CCn1c(Cc2ccc(F)cc2)cc(=O)c(C(=O)O)c1-c1ccc(Cl)c(Cl)c1` [Compound 12, 2-(3,4-dichlorophenyl)-1-ethyl-6-[(4-fluorophenyl)methyl]-4-oxo-pyridine-3-carboxylic acid] was tested, and the “percentage damage caused to the plant, ZEAMX” value (Zea mays (ZEAMX) [1]; rate 1000 g/Ha) was 0 and the “Pre-emergence Test, percentage damage caused to the plant (five-point scale), AMARE” value ([3]; Rate 1000 g/Ha) was 0.
`CCn1c(Cc2nccs2)cc(=O)c(C(=O)O)c1-c1ccc(Cl)c(Cl)c1` [Compound 19, 2-(3,4-dichlorophenyl)-1-ethyl-4-oxo-6-(thiazol-2-ylmethyl)pyridine-3-carboxylic acid] was tested, and the “Pre-emergence Test, percentage damage caused to the plant (five-point scale), AMAPA” value ([2]; Rate 1000 g/Ha) was 0 and the “Pre-emergence Test, percentage damage caused to the plant (five-point scale), AMARE” value ([3]; Rate 1000 g/Ha) was 0.
With `CCn1c(Cc2cc(F)cc(F)c2)cc(=O)c(C(=O)O)c1-c1ccc(Cl)c(Cl)c1` [Compound 29, 2-(3,4-dichlorophenyl)-6-[(3,5-difluorophenyl)methyl]-1-ethyl-4-oxo-pyridine-3-carboxylic acid] the “percentage damage caused to the plant, ZEAMX” value (Zea mays (ZEAMX) [1]; rate 1000 g/Ha) was 0, the “Pre-emergence Test, percentage damage caused to the plant (five-point scale), AMAPA” value ([2]; Rate 1000 g/Ha) was 0 and the “Pre-emergence Test, percentage damage caused to the plant (five-point scale), ZEAMX” value (Zea mays (ZEAMX) [4]; Rate 1000 g/Ha) was 0. For the same compound, the “Pre-emergence Test, percentage damage caused to the plant (five-point scale), AMARE” value ([3]; Rate 1000 g/Ha) was 0.
`CCn1c(Cc2cccc(OC(F)(F)F)c2)cc(=O)c(C(=O)O)c1-c1ccc(Cl)c(Cl)c1` [Compound 30, 2-(3,4-dichlorophenyl)-1-ethyl-4-oxo-6-[[3-(trifluoromethoxy)phenyl]methyl]pyridine-3-carboxylic acid] was tested, and the “percentage damage caused to the plant, ZEAMX” value (Zea mays (ZEAMX) [1]; rate 1000 g/Ha) was 0.
For `CCn1c(Cc2cccc(C(F)(F)F)n2)cc(=O)c(C(=O)O)c1-c1ccc(Cl)c(Cl)c1` [Compound 39, 2-(3,4-dichlorophenyl)-1-ethyl-4-oxo-6-[[6-(trifluoromethyl)-2-pyridyl]methyl]pyridine-3-carboxylic acid], the “Pre-emergence Test, percentage damage caused to the plant (five-point scale), AMAPA” value ([2]; Rate 1000 g/Ha) was 0.
With `CCn1c(Cc2ccnc(F)c2)cc(=O)c(C(=O)O)c1-c1ccc(Cl)c(Cl)c1` [Compound 44, 2-(3,4-dichlorophenyl)-1-ethyl-6-[(2-fluoro-4-pyridyl)methyl]-4-oxo-pyridine-3-carboxylic acid] the “Pre-emergence Test, percentage damage caused to the plant (five-point scale), ZEAMX” value (Zea mays (ZEAMX) [4]; Rate 250 g/Ha) was 0.
`CCn1c(Cc2ccn(C3CC3)n2)cc(=O)c(C(=O)O)c1-c1ccc(Cl)c(Cl)c1` [Compound 54, 6-[(1-cyclopropylpyrazol-3-yl)methyl]-2-(3,4-dichlorophenyl)-1-ethyl-4-oxo-pyridine-3-carboxylic acid] was tested, and the “Pre-emergence Test, percentage damage caused to the plant (five-point scale), AMAPA” value ([2]; Rate 1000 g/Ha) was 0 and the “Pre-emergence Test, percentage damage caused to the plant (five-point scale), AMARE” value ([3]; Rate 1000 g/Ha) was 0.
For `CCn1c(Cc2cccc(C#N)n2)cc(=O)c(C(=O)O)c1-c1ccc(Cl)c(Cl)c1` [Compound 57, 6-[(6-cyano-2-pyridyl)methyl]-2-(3,4-dichlorophenyl)-1-ethyl-4-oxo-pyridine-3-carboxylic acid], the “percentage damage caused to the plant, ZEAMX” value (Zea mays (ZEAMX) [1]; rate 1000 g/Ha) was 0.
`CCn1c(Cc2ccc(OC)cc2C(F)(F)F)cc(=O)c(C(=O)O)c1-c1ccc(Cl)c(Cl)c1` [Compound 65, 2-(3,4-dichlorophenyl)-1-ethyl-6-[[4-methoxy-2-(trifluoromethyl)phenyl]methyl]-4-oxo-pyridine-3-carboxylic acid] was tested, and the “Pre-emergence Test, percentage damage caused to the plant (five-point scale), ZEAMX” value (Zea mays (ZEAMX) [4]; Rate 1000 g/Ha) was 0.
For `CCn1c(Cc2ccc(F)c(OC)c2)cc(=O)c(C(=O)O)c1-c1ccc(Cl)c(Cl)c1` [Compound 95, 2-(3,4-dichlorophenyl)-1-ethyl-6-[(4-fluoro-3-methoxy-phenyl)methyl]-4-oxo-pyridine-3-carboxylic acid], the “Pre-emergence Test, percentage damage caused to the plant (five-point scale), AMAPA” value ([2]; Rate 1000 g/Ha) was 0, the “Pre-emergence Test, percentage damage caused to the plant (five-point scale), ZEAMX” value (Zea mays (ZEAMX) [4]; Rate 1000 g/Ha) was 0 and the “Pre-emergence Test, percentage damage caused to the plant (five-point scale), AMARE” value ([3]; Rate 1000 g/Ha) was 0.
For `CCn1c(Cc2ccc(C)c(Cl)n2)cc(=O)c(C(=O)O)c1-c1ccc(Cl)c(Cl)c1` [Compound 97, 6-[(6-chloro-5-methyl-2-pyridiyl)methyl]-2-(3,4-dichlorophenyl)-1-ethyl-4-oxo-pyridine-3-carboxylic acid], the “Pre-emergence Test, percentage damage caused to the plant (five-point scale), AMAPA” value ([2]; Rate 1000 g/Ha) was 0 and the “Pre-emergence Test, percentage damage caused to the plant (five-point scale), AMARE” value ([3]; Rate 1000 g/Ha) was 0.
For `CCn1c(Cc2nc(Cl)ccc2COC)cc(=O)c(C(=O)O)c1-c1ccc(Cl)c(Cl)c1` [Compound 105, 6-[[6-chloro-3-(methoxymethyl)-2-pyridyl]methyl]-2-(3,4-dichlorophenyl)-1-ethyl-4-oxo-pyridine-3-carboxylic acid], the “Pre-emergence Test, percentage damage caused to the plant (five-point scale), AMAPA” value ([2]; Rate 250 g/Ha) was 0 and the “Pre-emergence Test, percentage damage caused to the plant (five-point scale), AMARE” value ([3]; Rate 250 g/Ha) was 0.
For `CCn1c(Cc2ccc(C(F)F)nn2)cc(=O)c(C(=O)O)c1-c1ccc(Cl)c(Cl)c1` [Compound 108, 2-(3,4-dichlorophenyl)-6-[[6-(difluoromethyl)-pyridazin-3-yl]methyl]-1-ethyl-4-oxo-pyridine-3-carboxylic acid], the “Pre-emergence Test, percentage damage caused to the plant (five-point scale), AMAPA” value ([2]; Rate 1000 g/Ha) was 0, the “Pre-emergence Test, percentage damage caused to the plant (five-point scale), ZEAMX” value (Zea mays (ZEAMX) [4]; Rate 1000 g/Ha) was 0 and the “Pre-emergence Test, percentage damage caused to the plant (five-point scale), AMARE” value ([3]; Rate 1000 g/Ha) was 0.
`CCn1c(Cc2cc(C(F)F)ccn2)cc(=O)c(C(=O)O)c1-c1ccc(Cl)c(Cl)c1` [Compound 115, 2-(3,4-dichlorophenyl)-6-[[4-(difluoromethyl)-2-pyridyl]methyl]-1-ethyl-4-oxo-pyridine-3-carboxylic acid] was tested, and the “Pre-emergence Test, percentage damage caused to the plant (five-point scale), ZEAMX” value (Zea mays (ZEAMX) [4]; Rate 250 g/Ha) was 0.
For `CCn1c(Cc2cc(Cl)ccn2)cc(=O)c(C(=O)O)c1-c1ccc(Cl)c(Cl)c1` [Compound 117, 6-[(4-chloro-2-pyridyl)methyl]-2-(3,4-dichlorophenyl)-1-ethyl-4-oxo-pyridine-3-carboxylic acid], the “percentage damage caused to the plant, ZEAMX” value (Zea mays (ZEAMX) [1]; rate 62.5 g/Ha) was 0 and the “Pre-emergence Test, percentage damage caused to the plant (five-point scale), ZEAMX” value (Zea mays (ZEAMX) [4]; Rate 62.5 g/Ha) was 0.
With `CCn1c(Cc2ccn(CC(C)C)n2)cc(=O)c(C(=O)O)c1-c1ccc(Cl)c(Cl)c1` [Compound 121, 2-(3,4-dichlorophenyl)-1-ethyl-6-[(1-isobutylpyrazol-3-yl)methyl]-4-oxo-pyridine-3-carboxylic acid] the “Pre-emergence Test, percentage damage caused to the plant (five-point scale), ZEAMX” value (Zea mays (ZEAMX) [4]; Rate 250 g/Ha) was 0.
With `CCn1c(Cc2ccn(C(F)F)n2)cc(=O)c(C(=O)O)c1-c1ccc(Cl)c(Cl)c1` [Compound 124, 2-(3,4-dichlorophenyl)-6-[[1-(difluoromethyl)pyrazol-3-yl]methyl]-1-ethyl-4-oxo-pyridine-3-carboxylic acid] the “Pre-emergence Test, percentage damage caused to the plant (five-point scale), AMAPA” value ([2]; Rate 62.5 g/Ha) was 0, the “Pre-emergence Test, percentage damage caused to the plant (five-point scale), ZEAMX” value (Zea mays (ZEAMX) [4]; Rate 62.5 g/Ha) was 0 and the “Pre-emergence Test, percentage damage caused to the plant (five-point scale), AMARE” value ([3]; Rate 62.5 g/Ha) was 0.
For `CCn1c(Cc2ccc(Cl)nc2)cc(=O)c(C(=O)O)c1-c1ccc(Cl)c(Cl)c1` [Compound 129, 6-[(6-chloro-3-pyridyl)methyl]-2-(3,4-dichlorophenyl)-1-ethyl-4-oxo-pyridine-3-carboxylic acid], the “percentage damage caused to the plant, ZEAMX” value (Zea mays (ZEAMX) [1]; rate 250 g/Ha) was 0 and the “Pre-emergence Test, percentage damage caused to the plant (five-point scale), AMAPA” value ([2]; Rate 250 g/Ha) was 0.
For `CCn1c(Cc2ccc(OC)nn2)cc(=O)c(C(=O)O)c1-c1ccc(Cl)c(Cl)c1` [Compound 133, 2-(3,4-dichlorophenyl)-1-ethyl-6-[(6-methoxypyridazin-3-yl)methyl]-4-oxo-pyridine-3-carboxylic acid], the “Pre-emergence Test, percentage damage caused to the plant (five-point scale), ZEAMX” value (Zea mays (ZEAMX) [4]; Rate 250 g/Ha) was 0.
`CCn1c(Cc2cccc(Br)n2)cc(=O)c(C(=O)O)c1-c1ccc(Cl)c(Cl)c1` [Compound 138, 6-[(6-bromo-2-pyridyl)methyl]-2-(3,4-dichlorophenyl)-1-ethyl-4-oxo-pyridine-3-carboylic acid] was tested, and the “Pre-emergence Test, percentage damage caused to the plant (five-point scale), ZEAMX” value (Zea mays (ZEAMX) [4]; Rate 250 g/Ha) was 0.
With `CCn1c(Cc2ccnc(C(F)(F)F)n2)cc(=O)c(C(=O)O)c1-c1ccc(Cl)c(Cl)c1` [Compound 141, 2-(3,4-dichlorophenyl)-1-ethyl-4-oxo-6-[[2-(trifluoromethyl)pyrimidin-4-yl]methyl]pyridine-3-carboxylic acid] the “Pre-emergence Test, percentage damage caused to the plant (five-point scale), AMAPA” value ([2]; Rate 250 g/Ha) was 0 and the “Pre-emergence Test, percentage damage caused to the plant (five-point scale), ZEAMX” value (Zea mays (ZEAMX) [4]; Rate 250 g/Ha) was 0.
In the case of `CCn1c(Cc2cccc(C(C)F)n2)cc(=O)c(C(=O)O)c1-c1ccc(Cl)c(Cl)c1` (stereo not shown) [Compound 147, 2-(3,4-dichlorophenyl)-1-ethyl-6-[[6-(1-fluoroethyl)-2-pyridyl]methyl]-4-oxo-pyridine-3-carboxylic acid], the “Pre-emergence Test, percentage damage caused to the plant (five-point scale), AMAPA” value ([2]; Rate 250 g/Ha) is reported as 0.
With `CCn1c(Cc2ccon2)cc(=O)c(C(=O)O)c1-c1ccc(Cl)c(Cl)c1` [Compound 149, 2-(3,4-dichlorophenyl)-1-ethyl-6-(isoxazol-3-ylmethyl)-4-oxo-pyridine-3-carboxylic acid] the “percentage damage caused to the plant, ZEAMX” value (Zea mays (ZEAMX) [1]; rate 250 g/Ha) was 0 and the “Pre-emergence Test, percentage damage caused to the plant (five-point scale), ZEAMX” value (Zea mays (ZEAMX) [4]; Rate 250 g/Ha) was 0.
